Here are results for six compounds from publication PMC11124870, “Effect of Antioxidants in Medicinal Products on Intestinal Drug Transporters” (Pharmaceutics, 2024).

Several values for one entry are separate records, joined by “and”; a condition that tells them apart may be missing. Equal values may be shown once.

Data set [1] deals with T1, P-gp (Homo sapiens, UniProt P08183).
T1 construct: purchased ThermoFisher Scientific GM0015; host or cells: Sf9 membrane vesicles
In words: Vesicular transport assay, 3H-NMQ uptake in P-gp membrane vesicles. Conditions: for % Uptake of 3H-NMQ P-gp: antioxidant 200 µM, uptake with DMSO set as 100%, mean ± SD, three replicates, membrane vesicles; for inhibition at 20 min, 200 µM: human, Sf9 membrane vesicles overexpressing human P-gp, pH 7, probe 3H-NMQ, 3H-NMQ. The class given is biochemical. The method, then:
(§1) The vesicular transport assay was performed using Spodoptera frugiperda 9 (Sf9) membrane vesicles overexpressing human P-gp or BCRP, as reported previously with minor modifications. In brief, Isoplate 96-well flat-bottom white plates were preincubated with HBSS containing 0.5 mg/mL BSA on an orbital shaker in a 37 °C incubator at 90 rpm for 60 min followed by washing with HBSS. The assay mixture (75 µL/well) contained a probe substrate and either vehicle control, a known inhibitor of P-gp or BCRP, or an antioxidant, in vesicle uptake buffer (50 mM MOPS-Tris, pH 7.0 + 70 mM KCl + 7.5 mM MgCl2) prewarmed to 37 °C. After addition of the assay mixture, 5 μL/well (5 μg/μL stock concentration of the vesicles) of vesicles overexpressing human P-gp or BCRP was added. Uptake assays were initiated by adding 20 μL of either 25 mM adenosine triphosphate (ATP) or 25 mM adenosine monophosphate (AMP) to a final concentration of 5 mM. Plates were incubated at 37 °C for 20 min with orbital shaking (90 rpm). After 20 min, the uptake was quenched by adding 150 μL of ice-cold wash buffer (40 mM MOPS-Tris, pH 7.0 + 70 mM KCl) to each well, and the mixture was transferred to a 96-well filtration plate. Vacuum was applied, and the vesicles were washed three times with wash buffer. Vesicles were then lysed with 100 µL of MicroScint-20.

Data set [2] can be described thus: Estimation of intestinal luminal concentration (Igut), dose/250 mL. Conditions: estimated from maximum oral amount (AP 10 mg, BHA 8 mg) in 250 mL intestinal fluid. On the procedure: Igut is intestinal luminal concentration estimated as dose/250 mL. The Igut concentration was estimated using the following equation: Igut=A÷MW×V×10^6 where Igut is the estimated intestinal luminal concentration (µM), A is the amount of antioxidant in an oral dosage (mg), MW is the molecular weight, and V is the volume of intestinal fluid, i.e., 250 mL.

The conditions of data set [3]: Table S1; source not stated; cited from earlier work.
The target of data set [4] is T2, OATP2B1 (Homo sapiens, UniProt O94956).
T2 sequence (O94956 1-709): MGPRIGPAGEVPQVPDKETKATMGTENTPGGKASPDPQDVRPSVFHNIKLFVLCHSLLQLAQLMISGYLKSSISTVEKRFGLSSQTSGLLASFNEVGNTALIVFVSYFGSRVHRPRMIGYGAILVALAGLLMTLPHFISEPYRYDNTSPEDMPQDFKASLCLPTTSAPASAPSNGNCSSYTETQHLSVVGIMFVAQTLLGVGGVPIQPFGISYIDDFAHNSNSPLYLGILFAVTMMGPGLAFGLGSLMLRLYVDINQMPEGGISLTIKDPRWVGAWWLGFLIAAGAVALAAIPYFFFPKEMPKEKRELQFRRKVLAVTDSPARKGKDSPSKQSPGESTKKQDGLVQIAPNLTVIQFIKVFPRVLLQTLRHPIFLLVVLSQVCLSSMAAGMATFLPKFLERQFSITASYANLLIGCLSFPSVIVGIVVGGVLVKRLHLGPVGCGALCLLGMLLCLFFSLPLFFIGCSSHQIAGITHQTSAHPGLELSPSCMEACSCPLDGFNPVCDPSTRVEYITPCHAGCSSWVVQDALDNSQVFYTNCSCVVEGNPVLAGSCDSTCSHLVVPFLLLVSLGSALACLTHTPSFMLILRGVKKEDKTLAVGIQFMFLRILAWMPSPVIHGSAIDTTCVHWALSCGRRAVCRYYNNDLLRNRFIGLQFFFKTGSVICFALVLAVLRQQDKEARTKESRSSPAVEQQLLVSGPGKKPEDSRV
Briefly: 3H-valsartan uptake inhibition in HEK-293-OATP2B1 cells. Conditions: IC50 OATP2B1, valsartan uptake, substrate 3H-valsartan, three independent experiments.
Description: (§2) The uptake transporter assay was performed as reported previously with minor modifications [15]. A day before the uptake assay, Isoplate 96-well plates were coated with poly-D-lysine in PBS with calcium and magnesium and washed with PBS. […] An assay mixture of ^3H-estrone sulfate, a known inhibitor of OATP2B1, or an antioxidant was prepared and incubated in a 37 °C incubator for 10 min. The cells were washed with ice-cold HBSS three times and incubated with MicroScint fluid on a shaker for 1 h for cell lysis. Radioactivity was measured by liquid scintillation counting with a MicroBeta^2® microplate counter. […] On the day of experiment, cells were washed twice with 0.4 mL of HBSS per well and then pre-incubated for 10–20 min in 0.4 mL of HBSS. […] Uptake of ^3H-valsartan was stopped after 15 min by washing three times with ice-cold HBSS. Cells were lysed in 750 µL of lysis buffer (0.1 N NaOH and 0.1% SDS in double-distilled water) per well while shaking for 60 min. A total of 690 µL of the lysate from each well was then added to 2.5 mL of EcoLite scintillation fluid. The radioactivity was determined on a LS6500 Scintillation Counter (Beckman Coulter). Protein concentration was measured with a Pierce™ BCA protein assay kit. The radioactivity in each well was corrected for protein concentration. All values were determined in triplicate, and the final values are expressed as % uptake relative to negative control (1% DMSO).
(§3) Antioxidants were screened at a concentration of 200 μM.

Data set [5] addresses T2, OATP2B1. In words: Uptake transporter assay, 3H-estrone sulfate uptake in HEK-293-OATP2B1 cells. Conditions: for % Uptake of 3H-ES OATP2B1: antioxidant 200 µM, uptake with DMSO set as 100%, mean ± SD, three replicates, HEK-293-OATP2B1 cells.
Description: as §2, §3
Another data set concerns the target T3, BCRP (Homo sapiens, UniProt Q9UNQ0).
T3 sequence (Q9UNQ0 1-655): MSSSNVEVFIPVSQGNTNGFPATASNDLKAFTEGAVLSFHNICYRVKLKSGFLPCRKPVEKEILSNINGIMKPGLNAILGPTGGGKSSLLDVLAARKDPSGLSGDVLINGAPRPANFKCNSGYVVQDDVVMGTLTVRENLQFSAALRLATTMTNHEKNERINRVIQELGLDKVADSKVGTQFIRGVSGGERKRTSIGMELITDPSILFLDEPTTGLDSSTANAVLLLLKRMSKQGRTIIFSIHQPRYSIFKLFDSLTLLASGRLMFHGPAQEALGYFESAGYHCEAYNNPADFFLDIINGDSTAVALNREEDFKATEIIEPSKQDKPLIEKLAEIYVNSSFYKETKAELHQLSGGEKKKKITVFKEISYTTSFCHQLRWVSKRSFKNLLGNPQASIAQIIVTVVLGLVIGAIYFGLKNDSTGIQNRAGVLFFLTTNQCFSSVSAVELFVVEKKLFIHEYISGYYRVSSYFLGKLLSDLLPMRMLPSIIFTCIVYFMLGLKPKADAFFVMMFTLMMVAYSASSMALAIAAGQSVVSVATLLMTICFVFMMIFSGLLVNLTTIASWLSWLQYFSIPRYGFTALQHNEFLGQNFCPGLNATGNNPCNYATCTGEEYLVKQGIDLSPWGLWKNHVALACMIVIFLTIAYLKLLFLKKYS
Briefly: Vesicular transport assay, 3H-CCK8 uptake in BCRP membrane vesicles. The class given is biochemical. More on the design: purchased ThermoFisher Scientific GM0008; host or cells: Sf9 membrane vesicles. Conditions: for % Uptake of 3H-CCK8 BCRP: antioxidant 200 µM, uptake with DMSO set as 100%, mean ± SD, three replicates, membrane vesicles; for inhibition at 20 min, 200 µM: human, Sf9 membrane vesicles overexpressing human BCRP, pH 7, probe 3H-CCK8, 3H-CCK8. On the procedure:
as §1

In data set [6] the test system is P-gp. More on the design: method as in PMID 19944162. Conditions: cited from earlier work.
For a further data set, the system named is OATP2B1, P-gp, and BCRP. Conditions: cited from earlier work.

One may read the inhibition as how much of the control response was suppressed. Higher therefore signals a response far below the control. As usually defined, the LogP is a log measure of how a compound divides between an organic and an aqueous phase. As usually defined, the IC50 is the concentration needed to halve the response being measured.

T1 sequence (P08183 whole entry): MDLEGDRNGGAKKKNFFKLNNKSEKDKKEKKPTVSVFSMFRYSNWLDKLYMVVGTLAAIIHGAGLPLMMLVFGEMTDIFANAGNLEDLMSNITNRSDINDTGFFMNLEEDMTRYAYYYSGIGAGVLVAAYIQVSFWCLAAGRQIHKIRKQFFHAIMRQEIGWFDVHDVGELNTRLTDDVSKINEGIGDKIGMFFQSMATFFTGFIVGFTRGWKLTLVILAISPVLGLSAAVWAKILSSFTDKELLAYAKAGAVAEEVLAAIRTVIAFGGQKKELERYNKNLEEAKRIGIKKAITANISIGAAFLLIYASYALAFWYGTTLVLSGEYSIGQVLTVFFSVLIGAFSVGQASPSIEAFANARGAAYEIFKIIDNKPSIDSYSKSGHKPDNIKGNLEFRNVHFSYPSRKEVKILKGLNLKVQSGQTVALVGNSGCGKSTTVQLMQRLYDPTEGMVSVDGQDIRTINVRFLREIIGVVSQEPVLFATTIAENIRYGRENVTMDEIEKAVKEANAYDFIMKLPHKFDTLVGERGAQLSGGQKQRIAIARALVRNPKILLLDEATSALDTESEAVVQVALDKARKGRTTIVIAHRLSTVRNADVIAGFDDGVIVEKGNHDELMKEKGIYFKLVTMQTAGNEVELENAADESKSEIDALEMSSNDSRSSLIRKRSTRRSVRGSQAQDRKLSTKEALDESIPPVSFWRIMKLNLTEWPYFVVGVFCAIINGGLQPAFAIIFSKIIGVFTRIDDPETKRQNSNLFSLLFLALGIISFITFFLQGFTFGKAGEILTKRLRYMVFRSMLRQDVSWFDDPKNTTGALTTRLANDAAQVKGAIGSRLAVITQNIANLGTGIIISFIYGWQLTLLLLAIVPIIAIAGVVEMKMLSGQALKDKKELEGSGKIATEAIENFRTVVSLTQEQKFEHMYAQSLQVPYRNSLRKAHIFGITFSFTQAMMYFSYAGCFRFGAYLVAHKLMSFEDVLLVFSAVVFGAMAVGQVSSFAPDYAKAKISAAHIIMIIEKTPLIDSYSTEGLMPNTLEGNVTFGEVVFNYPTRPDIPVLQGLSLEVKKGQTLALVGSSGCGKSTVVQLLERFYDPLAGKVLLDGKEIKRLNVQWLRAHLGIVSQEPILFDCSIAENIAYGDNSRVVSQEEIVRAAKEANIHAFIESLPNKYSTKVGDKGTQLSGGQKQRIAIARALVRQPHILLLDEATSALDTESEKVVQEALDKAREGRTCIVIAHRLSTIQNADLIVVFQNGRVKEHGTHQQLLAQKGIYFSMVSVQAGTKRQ

For `CCCCCCCCCCCCCCCC(=O)OC[C@H](O)[C@H]1OC(=O)C(O)=C1O` [Ascorbyl palmitate (AP), Ascorbyl palmitate], on P-gp [1], the “% Uptake of 3H-NMQ P-gp” value was determined as 86.9 ± 12.4%. Moreover, the inhibition at 20 min, 200 µM on P-gp [1] and against BCRP was under 50% throughout. Also, the “Max Intestinal Conc (µM) in 250 mL Fluid” value in data set [2] is 96.5 µM. The LogP in data set [3] is recorded as 6. The IC50 is 26 µM and 25.5 µM at OATP2B1 [4]; 23 ± 10 µM on OATP2B1 [5] (IC50 OATP2B1, substrate 3H-estrone sulfate, mean ± SD of three independent experiments); 95 ± 11.7 µM on OATP2B1 [5] (IC50 with preincubation, OATP2B1 expressing cells pre-incubated 30 minutes, mean ± SD of three independent experiments). Also, the “Effect of 30 min pre-incubation on inhibition potency” value at OATP2B1 [5] (OATP2B1-expressing cells pre-incubated for 30 min) is recorded as “did not further affect their inhibition potency”. On OATP2B1 [5], the “% Uptake of 3H-ES OATP2B1” value was determined as 28.3 ± 11.2%. At OATP2B1 [5] (human, HEK-293 cells that express OATP2B1, probe 3H-estrone sulfate, IC50 without preincubation, OATP2B1 expressing cells, mean ± SD of three independent experiments), this compound displayed an IC50 at 10 min of 159 ± 65.9 µM. The inhibition at 10 min, 200 µM against OATP2B1 [5] (human, HEK-293 cells that express OATP2B1, probe 3H-estrone sulfate, Inhibition of OATP2B1, 200 µM, 3H-estrone sulfate) is over 50%. In addition, the “% Uptake of 3H-CCK8 BCRP” value at BCRP turned out to be 50.9 ± 9.9%.
Regarding `CC(C)c1cc2c(c(O)c1O)[C@@]1(C(=O)O)CCCC(C)(C)[C@@H]1CC2` [Carnosic acid], at P-gp [1], the “% Uptake of 3H-NMQ P-gp” value is reported as 0.0 ± 10.1% and the inhibition at 20 min, 200 µM is at least 50%. In addition, the “P-gp inhibition in ATPase assays” value in the data set with P-gp [6] is “identified as a P-gp inhibitor”. Moreover, the LogP in data set [3] is 4.9. For the same compound, the “% Uptake of 3H-ES OATP2B1” value on OATP2B1 [5] came to 18.8 ± 5.6%. This compound had an inhibition at 10 min, 200 µM at OATP2B1 [5] (human, HEK-293 cells that express OATP2B1, probe 3H-estrone sulfate) of at least 50%. For the same compound, at BCRP, the “% Uptake of 3H-CCK8 BCRP” value came out at 4.5 ± 4.8% and the inhibition at 20 min, 200 µM is at least 50%.
With `O=S(O)S(=O)(=O)O` [Sodium metabisulfite], the “% Uptake of 3H-NMQ P-gp” value at P-gp [1] came to 78.8 ± 17.5%. For the same compound, the LogP in data set [3] is recorded as -3.7. On OATP2B1 [5], the “% Uptake of 3H-ES OATP2B1” value was found to be 118.9 ± 31.7%. On BCRP, the “% Uptake of 3H-CCK8 BCRP” value worked out at 94.5 ± 8.2%.
As to `O=S([O-])[O-].[Na+].[Na+]` [Sodium sulfite], the “% Uptake of 3H-NMQ P-gp” value on P-gp [1] was found to be 77.7 ± 33.7%. In data set [3], the LogP is given as -4. Moreover, the “% Uptake of 3H-ES OATP2B1” value at OATP2B1 [5] came out at 92.9 ± 4.5%. At BCRP, the “% Uptake of 3H-CCK8 BCRP” value was found to be 99.7 ± 5.5%.
Take `O.O.O.O.O.O=S([O-])([O-])=S.[Na+].[Na+]` [Sodium thiosulfate, pentahydrate]: the “% Uptake of 3H-NMQ P-gp” value at P-gp [1] is listed as 77.4 ± 20%. Besides, the LogP in data set [3] is listed as 0.048. In addition, in the data set on OATP2B1, P-gp, and BCRP, the “Inhibition of intestinal transporters, previous assessment” value was “found not to inhibit these transporters”. Also, at OATP2B1 [5], the “% Uptake of 3H-ES OATP2B1” value is on record as 104.4 ± 2.4%. Also, the “% Uptake of 3H-CCK8 BCRP” value at BCRP came to 114.2 ± 22.8%.
Regarding Vitamin E, the “% Uptake of 3H-NMQ P-gp” value on P-gp [1] is reported as 67.9 ± 24%. In addition, the “Inhibition of intestinal transporters, previous assessment” value in the data set with OATP2B1, P-gp, and BCRP is “found not to inhibit these transporters”. Further, the “% Uptake of 3H-ES OATP2B1” value at OATP2B1 [5] came out at 83.5 ± 20.9%. Besides, the “% Uptake of 3H-CCK8 BCRP” value at BCRP is reported as 81.0 ± 12.6%.
